# Measurements as given in patent publication US4965272A, “Antimicrobial compound and compositions particularly effective against candida albicans” (priority 1988, dated 1990).
# What was measured:
# [1] = humans, under varying conditions; cited from earlier work
# Candida albicans [2] = experiment: in vivo testing, disseminated infection of Candida albicans in outbred mice
# Source text: In the in vivo testing of the inventive compound and compositions, outbred mice were used. A disseminated infection of Candida albicansin the test animals was achieved by intravenous injection of 0.5 to 1×10^6 CFU of the pathogen. The organism is rapidly cleared from the blood and most tissues, except the kidney which is the primary target organ for the disseminated infection in mice. It is known than an inoculum of 0.5×10^6 CFU will cause death of outbred mice within 10-14 days due to disseminated infection if untreated. The vehicle used for administering the compound of the invention was a mixture consisting of 50% USP water, 40% propylene glycol and 10% absolute ethonol.
# Candida albicans [3] = experiment: anticandidal activity, agar-well diffusion assay (zone of inhibition); type: cell-based; settings: three test strains of Candida albicans
# Description: In vitro evaluation of the anticandidal activity of the inventive compound and compositions was carried out using the agar-well diffusion assay as follows:
# Candida albicansNIH B311 used to induce experimental disseminated candidiasis was used for the initial qualitative evaluation of anticandidal activity. The organism was grown in Sabouraud-dextrose broth (SDB) for 14 hours at 37°, at which time the cells were harvested by centrifugation (4°, 2000 rpm, 3 min). After centrifugation, the cells were washed and suspended in sterile 0.9% saline to give a final concentration of […] colony forming units (CFU) per ml (adjusted using a hemocytometer). Culture plates (15×100 mm) for the qualitative assay were prepared from 25 ml of Sabouraud-dextrose agar. […] Anticandidal activity was recorded as the width (in mm) of the zone of inhibition following incubation of the plates at 37° for 24 hours. […]
# [4] = tested on: Cryptococcus neoformans 32264; experiment: MIC, twofold serial broth dilution assay; type: cell-based
# [5] = tested on: Saccharomyces cerevisiae 9763; experiment: MIC, twofold serial broth dilution assay; type: cell-based
# Aspergillus flavus 9170 = experiment: MIC, twofold serial broth dilution assay; type: cell-based
# Candida albicans B311 = experiment: MIC, twofold serial broth dilution assay; type: cell-based; settings: 24 and 48 hours at 37°
# Description: (§1) Candida albicansNIH B311 used to induce experimental disseminated candidiasis was used for the initial qualitative evaluation of anticandidal activity. The organism was grown in Sabouraud-dextrose broth (SDB) for 14 hours at 37°, at which time the cells were harvested by centrifugation (4°, 2000 rpm, 3 min). After centrifugation, the cells were washed and suspended in sterile 0.9% saline to give a final concentration of […] colony forming units (CFU) per ml (adjusted using a hemocytometer). Culture plates (15×100 mm) for the qualitative assay were prepared from 25 ml of Sabouraud-dextrose agar. Using sterile cotton swabs, the plates were streaked with the suspension ([…] of Candida albicansB311. Cylindrical plugs were removed from the agar plates by means of a sterile cork borer to produce wells with a diameter of approximately 11 mm. To the well was added 100 μl of solution or suspension of an extract, fraction, or pure compound. Crude extracts and fractions were tested at a concentration of 20 mg/ml, whereas pure compounds were tested at 1 mg/ml. When solvents other than H2 O, EtOH, MeOH, DMSO, DMF, or Me2 CO were required to dissolve extracts or compounds, solvent blanks were included. Anticandidal activity was recorded as the width (in mm) of the zone of inhibition following incubation of the plates at 37° for 24 hours. The antifungal agents amphotericin-B and ketoconazole were included as standards in each assay.
# (§2) The method used to determine the minimum inhibitory concentration (MIC) of the inventive compound was a twofold serial broth dilution assay in yeast nitrogen broth. In addition to Candida albicansB311, the MIC values for eupolauridine were also determined for two additional strains of Candida albicans: ATCC 10231 and a clinical isolate, designated WH. The inventive compound was initially tested using a concentration of 100 μg/ml in the first tube. The compound was added to sterile Sabouraud-dextrose broth as a solution in DMSO. The inoculum for the MIC determination was prepared as described for qualitative evaluation. […]
# Candida albicans WH = experiment: MIC, twofold serial broth dilution assay; type: cell-based; settings: Candida albicans clinical isolate WH; 24 and 48 hours at 37°
# Description: as §1, §2
# Candida albicans 10231 = experiment: MIC, twofold serial broth dilution assay; type: cell-based; settings: ATCC10231; Candida albicans ATCC 10231; 24 and 48 hours at 37°
# Description: as §1, §2
# [6] = tested on: Trichophyton mentagrophytes 9972; experiment: MIC, twofold serial broth dilution assay; type: cell-based
# [7] = tested on: Aspergillus fumigatus 26934; experiment: MIC, twofold serial broth dilution assay; type: cell-based
smiles,measurement,setting,value
"C[C@@H]1[C@H](O)[C@@H](C)/C=C/C=C/C=C/C=C/C=C/C=C/C=C/[C@H](O[C@@H]2O[C@H](C)[C@@H](O)[C@H](N)[C@@H]2O)C[C@@H]2O[C@](O)(C[C@@H](O)C[C@@H](O)[C@H](O)CC[C@@H](O)C[C@@H](O)CC(=O)O[C@H]1C)C[C@H](O)[C@H]2C(=O)O [Amphotericin-B, amphotericin-B, reference compound]",side effects,[1],"fever, anorexia, nausea and vomiting, diarrhea, muscle and joint pain, phlebitis and thiophlebitis, anemia, abnormal renal function, anuria, cardiovascular distress, hypertension and hypotension"
same,Number dead/Total,"Candida albicans [2]; 2.5 mg/kg, day 1",0/10
same,Number dead/Total,"Candida albicans [2]; 2.5 mg/kg, day 2",0/10
same,Number dead/Total,"Candida albicans [2]; 2.5 mg/kg, day 3",0/10
same,Number dead/Total,"Candida albicans [2]; 2.5 mg/kg, day 4",0/10
same,Number dead/Total,"Candida albicans [2]; 2.5 mg/kg, day 5",0/10
same,Number dead/Total,"Candida albicans [2]; 2.5 mg/kg, day 6",1/10
same,Number dead/Total,"Candida albicans [2]; 2.5 mg/kg, day 7",2/10
same,Number dead/Total,"Candida albicans [2]; 2.5 mg/kg, day 8",2/10
same,Number dead/Total,"Candida albicans [2]; 2.5 mg/kg, day 9",4/10
same,Number dead/Total,"Candida albicans [2]; 2.5 mg/kg, day 10",4/10
"c1ccc2c(c1)-c1nccc3ccnc-2c13 [Eupolauridine, eupolauridine]",zone of inhibition,Candida albicans [3],remarkable zone of inhibition
same,MIC,[4],1.56 µg/mL
same,MIC,[5],3.12 µg/mL
same,MIC,Aspergillus flavus 9170,6.25 µg/mL
same,MIC,Candida albicans B311,1.56 µg/mL
same,MIC,Candida albicans WH,1.56 µg/mL
same,MIC,Candida albicans 10231,1.56 µg/mL
same,MIC,[6],1.56 µg/mL
same,MIC,[7],6.25 µg/mL
same,Number dead/Total,"Candida albicans [2]; 2 mg/kg, day 1",0/10
same,Number dead/Total,"Candida albicans [2]; 2 mg/kg, day 2",0/10
same,Number dead/Total,"Candida albicans [2]; 2 mg/kg, day 3",0/10
same,Number dead/Total,"Candida albicans [2]; 2 mg/kg, day 4",0/10
same,Number dead/Total,"Candida albicans [2]; 2 mg/kg, day 5",0/10
same,Number dead/Total,"Candida albicans [2]; 2 mg/kg, day 6",1/10
same,Number dead/Total,"Candida albicans [2]; 2 mg/kg, day 7",3/10
same,Number dead/Total,"Candida albicans [2]; 2 mg/kg, day 8",4/10
same,Number dead/Total,"Candida albicans [2]; 2 mg/kg, day 9",4/10
same,Number dead/Total,"Candida albicans [2]; 2 mg/kg, day 10",7/10
same,Number dead/Total,"Candida albicans [2]; 7 mg/kg, day 1",0/10
same,Number dead/Total,"Candida albicans [2]; 7 mg/kg, day 2",0/10
same,Number dead/Total,"Candida albicans [2]; 7 mg/kg, day 3",2/10
same,Number dead/Total,"Candida albicans [2]; 7 mg/kg, day 4",2/10
same,Number dead/Total,"Candida albicans [2]; 7 mg/kg, day 5",2/10
same,Number dead/Total,"Candida albicans [2]; 7 mg/kg, day 6",3/10
same,Number dead/Total,"Candida albicans [2]; 7 mg/kg, day 7",3/10
same,Number dead/Total,"Candida albicans [2]; 7 mg/kg, day 8",3/10
same,Number dead/Total,"Candida albicans [2]; 7 mg/kg, day 9",4/10
same,Number dead/Total,"Candida albicans [2]; 7 mg/kg, day 10",7/10
same,animals survived,"Candida albicans [2]; 20 mg/kg body weight, 10 days",50%
same,survival compared with amphotericin-B,"Candida albicans [2]; 20 mg/kg body weight, 10 days",not statistically significantly different from the results with amphotericin-B
same,Number dead/Total,"Candida albicans [2]; 20 mg/kg, day 1",0/10
same,Number dead/Total,"Candida albicans [2]; 20 mg/kg, day 2",0/10
same,Number dead/Total,"Candida albicans [2]; 20 mg/kg, day 3",0/10
same,Number dead/Total,"Candida albicans [2]; 20 mg/kg, day 4",0/10
same,Number dead/Total,"Candida albicans [2]; 20 mg/kg, day 5",0/10
same,Number dead/Total,"Candida albicans [2]; 20 mg/kg, day 6",0/10
same,Number dead/Total,"Candida albicans [2]; 20 mg/kg, day 7",1/10
same,Number dead/Total,"Candida albicans [2]; 20 mg/kg, day 8",3/10
same,Number dead/Total,"Candida albicans [2]; 20 mg/kg, day 9",3/10
same,Number dead/Total,"Candida albicans [2]; 20 mg/kg, day 10",5/10
